Results taken from ChEMBL document CHEMBL1145766, “2-(Anilinomethyl)imidazolines as alpha1 adrenergic receptor agonists: alpha1a subtype selective 2'-heteroaryl compounds” (Bioorg Med Chem Lett, 2003).

Experiments:
[1] = molecular target: T1, Alpha-1D adrenergic receptor (Homo sapiens) (UniProt P25100); assay: Maximal response via calcium mobilization towards Human Alpha-1D adrenergic receptor as percent rtelative to […] phenylephrine; format: functional
T1 sequence (whole entry): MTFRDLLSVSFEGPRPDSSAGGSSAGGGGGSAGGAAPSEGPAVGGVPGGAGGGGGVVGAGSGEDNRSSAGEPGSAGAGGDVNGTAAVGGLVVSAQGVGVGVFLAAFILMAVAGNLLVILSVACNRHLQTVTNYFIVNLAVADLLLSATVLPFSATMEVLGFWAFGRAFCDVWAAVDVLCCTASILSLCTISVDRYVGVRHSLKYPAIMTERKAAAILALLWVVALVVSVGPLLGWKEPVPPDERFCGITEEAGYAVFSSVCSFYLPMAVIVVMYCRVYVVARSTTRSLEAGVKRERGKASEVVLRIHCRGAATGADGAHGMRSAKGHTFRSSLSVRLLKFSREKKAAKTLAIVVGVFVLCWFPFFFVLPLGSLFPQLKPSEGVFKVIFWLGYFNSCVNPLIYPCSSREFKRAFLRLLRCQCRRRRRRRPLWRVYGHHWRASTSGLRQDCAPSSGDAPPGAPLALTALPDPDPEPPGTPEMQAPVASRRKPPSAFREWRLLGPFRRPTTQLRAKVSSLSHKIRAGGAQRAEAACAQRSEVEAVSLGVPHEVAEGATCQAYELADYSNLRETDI

[2] = molecular target: T2, Alpha-1D adrenergic receptor (Homo sapiens, UniProt P25100); assay: Agonism of recombinant human alpha-1D adrenergic receptor, expressed in rat 1 fibroblast cells; format: functional, cell-based
T2 sequence (P25100 whole entry): T1 sequence (whole entry)

[3] = molecular target: T3, Alpha-1A adrenergic receptor (Homo sapiens) (UniProt P35348); assay: Maximal response assayed via calcium mobilization to the human alpha-1A adrenergic receptor compared the percent of the […] phenylephrine response; format: functional
T3 sequence (whole entry): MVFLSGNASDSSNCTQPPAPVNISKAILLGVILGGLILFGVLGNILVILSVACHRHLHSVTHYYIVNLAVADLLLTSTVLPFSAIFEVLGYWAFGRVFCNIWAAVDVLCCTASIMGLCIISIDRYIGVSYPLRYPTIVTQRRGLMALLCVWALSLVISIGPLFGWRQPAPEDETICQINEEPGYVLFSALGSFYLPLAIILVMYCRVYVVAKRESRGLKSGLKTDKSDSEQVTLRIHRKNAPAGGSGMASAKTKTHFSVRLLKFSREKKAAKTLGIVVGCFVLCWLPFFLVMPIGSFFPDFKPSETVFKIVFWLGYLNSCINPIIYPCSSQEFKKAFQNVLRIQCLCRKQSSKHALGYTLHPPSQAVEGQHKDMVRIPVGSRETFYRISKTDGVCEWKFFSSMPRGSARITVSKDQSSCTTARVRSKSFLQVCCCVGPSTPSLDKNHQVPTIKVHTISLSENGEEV

[4] = molecular target: T4, Alpha-1B adrenergic receptor (Homo sapiens, UniProt P35368); assay: Agonism of human alpha-1B adrenergic receptor, expressed in rat 1 fibroblast cells; format: functional, cell-based
T4 sequence (P35368 whole entry): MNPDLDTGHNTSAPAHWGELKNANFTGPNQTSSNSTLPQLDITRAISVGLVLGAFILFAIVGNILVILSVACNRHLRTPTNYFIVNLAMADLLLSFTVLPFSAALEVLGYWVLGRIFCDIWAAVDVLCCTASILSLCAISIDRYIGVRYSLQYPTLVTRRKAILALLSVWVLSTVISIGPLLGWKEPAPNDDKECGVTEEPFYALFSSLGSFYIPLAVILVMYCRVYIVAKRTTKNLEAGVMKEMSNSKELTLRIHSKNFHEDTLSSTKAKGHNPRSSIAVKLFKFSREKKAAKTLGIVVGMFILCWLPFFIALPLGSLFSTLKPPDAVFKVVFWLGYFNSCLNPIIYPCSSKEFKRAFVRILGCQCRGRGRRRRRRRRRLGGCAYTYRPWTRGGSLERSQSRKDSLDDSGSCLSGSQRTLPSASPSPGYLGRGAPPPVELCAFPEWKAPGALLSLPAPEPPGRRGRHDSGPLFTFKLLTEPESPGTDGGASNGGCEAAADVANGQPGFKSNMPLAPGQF

[5] = molecular target: T5, Alpha-1B adrenergic receptor (Homo sapiens) (UniProt P35368); assay: Maximal response assayed via calcium mobilization to human alpha-1B adrenergic receptor compared to percent of the […] phenylephrine response.; format: functional
T5 sequence (whole entry): T4 sequence (P35368 whole entry)

[6] = molecular target: T6, Alpha-1A adrenergic receptor (Homo sapiens, UniProt P35348); assay: Agonism of human alpha-1A adrenergic receptor expressed in rat 1 fibroblast cells; format: functional, cell-based
T6 sequence (P35348 whole entry): T3 sequence (whole entry)

[7] = molecular target: T1, Alpha-1D adrenergic receptor (Homo sapiens); assay: Maximal response via calcium mobilization towards Human Alpha-1D adrenergic receptor as percent relative to […] phenylephrine; format: functional
[8] = molecular target: T2, Alpha-1D adrenergic receptor; assay: Inhibitory concentration against radioligand binding to human Alpha-1D adrenergic receptor, expressed in rat 1 fibroblast cells; format: cell-based
[9] = molecular target: T4, Alpha-1B adrenergic receptor; assay: Inhibitory concentration against radioligand binding to human Alpha-1B adrenergic receptor, expressed in rat 1 fibroblast cells; format: cell-based
[10] = molecular target: T6, Alpha-1A adrenergic receptor; assay: Inhibitory concentration against radioligand binding to human Alpha-1A adrenergic receptor, expressed in rat 1 fibroblast cells; format: cell-based
[11] = molecular target: T2, Alpha-1D adrenergic receptor; assay: Inhibitory concentration against radioligand binding to human aAlpha-1D adrenergic receptor, expressed in rat 1 fibroblast cells; format: cell-based

For `FC(F)(F)Cn1ncnc1-c1ccccc1NCC1=NCCN1`, the Max response [1] was 0%, the EC50 [2] was > 100000 nM and the Max response [3] was 91%. The EC50 [4] was > 100000 nM, the Max response [5] was 0% and the EC50 [6] was 79.4 nM.

In the case of `CCCn1nccc1-c1ccccc1NCC1=NCCN1`, the EC50 [2] is reported as > 100000 nM, the Max response [3] is reported as 59% and the EC50 [4] is reported as > 100000 nM. It also gave a Max response [5] of 0%, an EC50 [6] of 251 nM and a Max response [7] of 0%.

In the case of `Cn1nccc1-c1ccccc1NCC1=NCCN1`, the EC50 [2] is reported as > 100000 nM, the IC50 [8] is reported as 501 nM and the IC50 [9] is reported as 398 nM. For the same compound, the Max response [3] was 108%, the EC50 [4] was > 100000 nM and the Max response [5] was 0%. The IC50 [10] was 200 nM, the EC50 [6] was 10 nM and the Max response [7] was 0%.

A Max response [1] of 54%, an EC50 [2] of 20 nM and an IC50 [11] of 39.8 nM were found for `c1ccc(-c2cc[nH]n2)c(NCC2=NCCN2)c1` in this work. It also gave an IC50 [9] of 158 nM, a Max response [3] of 104% and an EC50 [4] of 5.01 nM. For the same compound, the Max response [5] was 95%, the IC50 [10] was 25.1 nM and the EC50 [6] was 1 nM.

For `Cc1ccc(-c2ccccc2NCC2=NCCN2)n1C`, the EC50 [2] was > 100000 nM, the Max response [3] was 78% and the EC50 [4] was > 100000 nM. It also gave a Max response [5] of 0%, an EC50 [6] of 50.1 nM and a Max response [7] of 0%.

An EC50 [2] of 20 nM, a Max response [3] of 112% and an EC50 [4] of 79.4 nM were found for `c1ccc(-c2cn[nH]c2)c(NCC2=NCCN2)c1` in this work. The Max response [5] was 72%, the EC50 [6] was 1.26 nM and the Max response [7] was 62%.

With `FC(F)(F)Cn1nccc1-c1ccccc1NCC1=NCCN1` the EC50 [2] was > 100000 nM, the Max response [3] was 76% and the EC50 [4] was > 100000 nM. It also gave a Max response [5] of 0%, an EC50 [6] of 316 nM and a Max response [7] of 0%.

A Max response [1] of 66%, an EC50 [2] of 398 nM and a Max response [3] of 86% were found for `CCCCn1ncnc1-c1ccccc1NCC1=NCCN1` in this work. For the same compound, the EC50 [4] was 200 nM, the Max response [5] was 83% and the EC50 [6] was 200 nM.

A Max response [1] of 123%, an EC50 [2] of 3.98 nM and a Max response [3] of 135% were found for `c1ccc(-c2nc[nH]n2)c(NCC2=NCCN2)c1` in this work. For the same compound, the EC50 [4] was 5.01 nM, the Max response [5] was 100% and the EC50 [6] was 0.794 nM.

With `Cc1n[nH]c(-c2ccccc2NCC2=NCCN2)n1` the Max response [1] was 0%, the EC50 [2] was > 5010 nM and the Max response [3] was 87%. For the same compound, the EC50 [4] was > 5010 nM, the Max response [5] was 0% and the EC50 [6] was 794 nM.

For `CCn1nccc1-c1ccccc1NCC1=NCCN1`, the EC50 [2] was > 100000 nM, the Max response [3] was 81% and the EC50 [4] was > 100000 nM. It also gave a Max response [5] of 0%, an EC50 [6] of 63.1 nM and a Max response [7] of 0%.

For `CC(C)n1nccc1-c1ccccc1NCC1=NCCN1`, the EC50 [2] was > 100000 nM, the Max response [3] was 0% and the EC50 [4] was > 100000 nM. For the same compound, the Max response [5] was 0%, the EC50 [6] was > 100000 nM and the Max response [7] was 0%.

With `Cn1cc(-c2ccccc2NCC2=NCCN2)cn1` the EC50 [2] was > 100000 nM, the Max response [3] was 39% and the EC50 [4] was > 100000 nM. The Max response [5] was 0%, the EC50 [6] was 398 nM and the Max response [7] was 0%.

`CCn1ccc(-c2ccccc2NCC2=NCCN2)n1` was tested, and the EC50 [2] was > 100000 nM, the Max response [3] was 78% and the EC50 [4] was > 100000 nM. For the same compound, the Max response [5] was 0%, the EC50 [6] was 25.1 nM and the Max response [7] was 0%.

A Max response [1] of 37%, an EC50 [2] of 3160 nM and a Max response [3] of 104% were found for `CC(C)n1ncnc1-c1ccccc1NCC1=NCCN1` in this work. For the same compound, the EC50 [4] was > 100000 nM, the Max response [5] was 0% and the EC50 [6] was 6.31 nM.

An EC50 [2] of 200 nM, a Max response [3] of 88% and an EC50 [4] of 39.8 nM were found for `Cn1ccnc1-c1ccccc1NCC1=NCCN1` in this work. The Max response [5] was 104%, the EC50 [6] was 6.31 nM and the Max response [7] was 92%.

With `Cn1cccc1-c1ccccc1NCC1=NCCN1` the EC50 [2] was 251 nM, the Max response [3] was 103% and the EC50 [4] was > 100000 nM. For the same compound, the Max response [5] was 0%, the EC50 [6] was 20 nM and the Max response [7] was 32%.

A Max response [1] of 116%, an EC50 [2] of 63.1 nM and a Max response [3] of 91% were found for `Cn1ncnc1-c1ccccc1NCC1=NCCN1` in this work. The EC50 [4] was 39.8 nM, the Max response [5] was 93% and the EC50 [6] was 2 nM.

In the case of `CCn1cc(-c2ccccc2NCC2=NCCN2)cn1`, the EC50 [2] is reported as > 100000 nM, the Max response [3] is reported as 0% and the EC50 [4] is reported as > 100000 nM. For the same compound, the Max response [5] was 0%, the EC50 [6] was > 100000 nM and the Max response [7] was 0%.

An EC50 [2] of 15.8 nM, a Max response [3] of 116% and an EC50 [4] of 50.1 nM were found for `Cn1ccc(-c2ccccc2NCC2=NCCN2)n1` in this work. It also gave a Max response [5] of 33%, an EC50 [6] of 3.16 nM and a Max response [7] of 29%.

In the case of `CCn1cccc1-c1ccccc1NCC1=NCCN1`, the EC50 [2] is reported as > 100000 nM, the Max response [3] is reported as 93% and the EC50 [4] is reported as > 100000 nM. It also gave a Max response [5] of 0%, an EC50 [6] of 2.51 nM and a Max response [7] of 0%.

A Max response [1] of 55%, an EC50 [2] of 126 nM and a Max response [3] of 107% were found for `CCn1ncnc1-c1ccccc1NCC1=NCCN1` in this work. It also gave an EC50 [4] of 63.1 nM, a Max response [5] of 94% and an EC50 [6] of 1.26 nM.

A Max response [1] of 57%, an EC50 [2] of 251 nM and a Max response [3] of 96% were found for `CCCn1ncnc1-c1ccccc1NCC1=NCCN1` in this work. For the same compound, the EC50 [4] was 316 nM, the Max response [5] was 74% and the EC50 [6] was 12.6 nM.

With `Cc1nc(-c2ccccc2NCC2=NCCN2)n(C)n1` the Max response [1] was 0%, the EC50 [2] was > 5010 nM and the Max response [3] was 98%. The EC50 [4] was > 5010 nM, the Max response [5] was 0% and the EC50 [6] was 1000 nM.
